Assay results taken from patent US4713378A, “Penem derivatives” (Farmitalia Carlo Erba S.p.A., priority 1984, dated 1987).
Values after ≈ are worked out from the molar mass of the structure shown. Read-outs that look alike come from different tables or passages of the source.

Assays:
Assay type in all cases: cell-based
[1] = system: Citrobacter freundii ATCC 8090; assay: antibacterial in vitro activity (MIC), Citrobacter freundii ATCC 8090; details: ATCC8090; Citrobacter freundii ATCC 8090, in vitro
Source text: (§1) Comparison between the antibacterial in vitro activity
(§2) (MIC, μg/ml) of compound "5" and two reference drugs: […]

[2] = system: Pseudomonas aeruginosa ATCC 19660; assay: antibacterial in vitro activity (MIC), Pseudomonas aeruginosa ATCC 19660; details: ATCC19660; Pseudomonas aeruginosa ATCC 19660, in vitro
Source text: as §1, §2

[3] = system: Klebsiella aerogenes 1082E (β-lact.+); assay: antibacterial in vitro activity (MIC), Klebsiella aerogenes 1082E (β-lact.+)
Source text: as §1, §2

[4] = system: Escherichia coli 026:B6 Cef R; assay: antibacterial in vitro activity (MIC), Escherichia coli 026:B6 Cef R
Source text: as §1, §2

[5] = system: Enterobacter cloacae P 99 (β-lact.+); assay: antibacterial in vitro activity (MIC), Enterobacter cloacae P 99 (β-lact.+)
Source text: as §1, §2

[6] = system: Escherichia coli B Cef. R (β-lact.+); assay: antibacterial in vitro activity (MIC), Escherichia coli B Cef. R (β-lact.+)
Source text: as §1, §2

[7] = system: Staphylococcus aureus Smith; assay: antibacterial in vitro activity (MIC), Staphylococcus aureus Smith
Source text: as §1, §2

[8] = system: Salmonella typhimurium ATCC 14028; assay: antibacterial in vitro activity (MIC), Salmonella typhimurium ATCC 14028; details: Salmonella enterica; Salmonella typhimurium ATCC 14028, in vitro
Source text: as §1, §2

[9] = system: Proteus morganii ATCC 25830; assay: antibacterial in vitro activity (MIC), Proteus morganii ATCC 25830; details: Morganella morganii, ATCC25830; Proteus morganii ATCC 25830, in vitro
Source text: as §1, §2

[10] = system: Staphylococcus aureus 209 P; assay: antibacterial in vitro activity (MIC), Staphylococcus aureus 209 P
Source text: as §1, §2

[11] = system: Serratia marcescens ATCC 2902; assay: antibacterial in vitro activity (MIC), Serratia marcescens ATCC 2902; details: ATCC2902; Serratia marcescens ATCC 2902, in vitro
Source text: as §1, §2

[12] = system: Shigella flexneri ATCC 11836; assay: antibacterial in vitro activity (MIC), Shigella flexneri ATCC 11836; details: ATCC11836; Shigella flexneri ATCC 11836, in vitro
Source text: as §1, §2

[13] = system: Streptococcus pyogenes ATCC 12384; assay: antibacterial in vitro activity (MIC), Streptococcus pyogenes ATCC 12384; details: ATCC12384; Streptococcus pyogenes ATCC 12384, in vitro
Source text: as §1, §2

Escherichia coli 026:B6 = assay: antibacterial in vitro activity (MIC), Escherichia coli 026:B6; details: Escherichia coli 026:B6, in vitro
Source text: as §1, §2

[14] = system: Proteus mirabilis FI 7474; assay: antibacterial in vitro activity (MIC), Proteus mirabilis FI 7474; details: FI7474; Proteus mirabilis FI 7474, in vitro
Source text: as §1, §2

[15] = system: Enterobacter cloacae 1321 E; assay: antibacterial in vitro activity (MIC), Enterobacter cloacae 1321 E
Source text: as §1, §2

Escherichia coli B = assay: antibacterial in vitro activity (MIC), Escherichia coli B
Source text: as §1, §2

[16] = Staphylococcus aureus 209 P, in vitro, read-out: MIC
[17] = Enterobacter cloacae P 99 (β-lact.+), in vitro, read-out: MIC

For `CC(=O)OCC1=C(C(=O)O)N2C(=O)[C@H]([C@@H](C)O)[C@H]2S1` [FCE 21420], the MIC [1] was 0.78 µg/mL (≈ 2.71 µM), the MIC [2] was > 50 µg/mL and the MIC [3] was 0.78 µg/mL (≈ 2.71 µM). For the same compound, the MIC [4] was 3.12 µg/mL (≈ 10.9 µM), the MIC ([5]; Enterobacter cloacae) was 3.12 µg/mL (≈ 10.9 µM) and the MIC [6] was 0.39 µg/mL (≈ 1.36 µM). For the same compound, the MIC [7] was 0.023 µg/mL (≈ 0.0801 µM), the MIC [8] was 0.39 µg/mL (≈ 1.36 µM) and the MIC [9] was 0.78 µg/mL (≈ 2.71 µM). It also gave an MIC [10, 16] of 0.045 µg/mL (≈ 0.157 µM), an MIC [11] of 3.1 µg/mL (≈ 10.8 µM) and an MIC [12] of 0.39 µg/mL (≈ 1.36 µM). For the same compound, the MIC [13] was 0.045 µg/mL (≈ 0.157 µM).

In the case of `C[C@@H](O)[C@H]1C(=O)N2C(C(=O)[O-])=C(C[N+]3(C)CCCC3)S[C@H]12` [Compound 5, (5R,6S)-6-[(1R)-hydroxyethyl]-2-[1-(1-methylpyrrolidinio)]-methylpenem-3-carboxylate], the MIC [1] is reported as 0.09 µg/mL (≈ 0.288 µM), the MIC [2] is reported as 25 µg/mL (≈ 80 µM) and the MIC (Escherichia coli 026:B6) is reported as 0.005 µg/mL (≈ 0.016 µM). The MIC [3] was 0.045 µg/mL (≈ 0.144 µM), the MIC [5, 17] was 0.045 µg/mL (≈ 0.144 µM) and the MIC [14] was 0.19 µg/mL (≈ 0.608 µM). For the same compound, the MIC [6] was 0.045 µg/mL (≈ 0.144 µM), the MIC [7] was < 0.005 µg/mL and the MIC [15] was 0.045 µg/mL (≈ 0.144 µM). For the same compound, the MIC [8] was 0.045 µg/mL (≈ 0.144 µM), the MIC [9] was 0.38 µg/mL (≈ 1.22 µM) and the MIC (Escherichia coli B) was 0.045 µg/mL (≈ 0.144 µM). The MIC [10, 16] was < 0.005 µg/mL, the MIC [11] was 0.78 µg/mL (≈ 2.5 µM) and the MIC [12] was 0.045 µg/mL (≈ 0.144 µM). For the same compound, the MIC [13] was < 0.005 µg/mL.

Work on `CO/N=C(\C(=O)N[C@@H]1C(=O)N2C(C(=O)O)=C(COC(C)=O)CS[C@H]12)c1csc(N)n1` [Cefotaxime] yielded an MIC [2] of 12 µg/mL (≈ 26.3 µM), an MIC (Escherichia coli 026:B6) of 0.78 µg/mL (≈ 1.71 µM) and an MIC [3] of 3.12 µg/mL (≈ 6.85 µM). The MIC [4] was 1.56 µg/mL (≈ 3.43 µM), the MIC [5, 17] was > 100 µg/mL and the MIC [6] was 0.19 µg/mL (≈ 0.417 µM). The MIC [7] was 0.78 µg/mL (≈ 1.71 µM), the MIC [8] was 0.045 µg/mL (≈ 0.0988 µM) and the MIC [9] was 0.011 µg/mL (≈ 0.0242 µM). For the same compound, the MIC (Escherichia coli B) was 0.011 µg/mL (≈ 0.0242 µM), the MIC ([10]; Staphylococcus aureus, 209P) was 1.56 µg/mL (≈ 3.43 µM) and the MIC [12] was 0.023 µg/mL (≈ 0.0505 µM). It also gave an MIC [13] of 0.78 µg/mL (≈ 1.71 µM).
